Structures are written as SMILES. Numbers after ± are expanded uncertainties.

Data set [1] is described as follows: refractive index (Na D-line) (dimensionless). Conditions: 101.33 kPa, Liquid, Standard Abbe refractometry.
The conditions of data set [2]: 101.33 kPa, Liquid, Vibrating tube method.

With `CCCCO` [butan-1-ol], the refractive index (as a rule, the speed of light in vacuum divided by its phase velocity in the sample) in data set [1] (288.2 K) was 1.4013 ± 0.0004; in data set [1] (303.2 K) it was 1.3952 ± 0.0004; in data set [1] (318.2 K) it was 1.3892 ± 0.0004. The values for the mass density in data set [2] (288.2 K), in data set [2] (303.2 K) and in data set [2] (318.2 K) were 813.82 ± 0.14 kg/m3, 802.407 ± 0.14 kg/m3 and 790.724 ± 0.15 kg/m3, respectively.

For `CCOC(C)=O` [ethyl acetate], the refractive index in data set [1] (288.2 K) is 1.3749 ± 0.0004; in data set [1] (303.2 K), 1.3672 ± 0.0004; in data set [1] (318.2 K), 1.3594 ± 0.0004. Moreover, the values for the mass density in data set [2] (288.2 K), in data set [2] (303.2 K) and in data set [2] (318.2 K) were 906.89 ± 0.11 kg/m3, 888.196 ± 0.12 kg/m3 and 869.522 ± 0.12 kg/m3, respectively.

On to `O=Cc1ccco1` [2-furaldehyde], for which the values for the refractive index in data set [1] (288.2 K), in data set [1] (303.2 K) and in data set [1] (318.2 K) were 1.528 ± 0.0004, 1.5206 ± 0.0004 and 1.5133 ± 0.0004, respectively. The mass density – broadly, the mass of a sample divided by its volume – in data set [2] (288.2 K) was determined as 1165.24 ± 0.37 kg/m3; in data set [2] (303.2 K), 1149.77 ± 0.35 kg/m3; in data set [2] (318.2 K), 1133.83 ± 0.34 kg/m3.

Regarding `CCCOC(C)=O` [propyl ethanoate], the results for the refractive index in data set [1] (288.2 K), in data set [1] (303.2 K) and in data set [1] (318.2 K) were 1.3866 ± 0.0004, 1.3792 ± 0.0004 and 1.3717 ± 0.0004, respectively. Moreover, the values for the mass density in data set [2] (288.2 K), in data set [2] (303.2 K) and in data set [2] (318.2 K) were 894.325 ± 0.082 kg/m3, 877.529 ± 0.089 kg/m3 and 860.512 ± 0.095 kg/m3, respectively.

As for `O` [water], the refractive index is 1.3334 ± 0.0004 in data set [1] (288.2 K), 1.3319 ± 0.0004 in data set [1] (303.2 K) and 1.3298 ± 0.0004 in data set [1] (318.2 K).
